Drawing on ChEMBL document CHEMBL1143901, “Lead identification of 2-iminobenzimidazole antagonists of the chemokine receptor CXCR3” (Bioorg Med Chem Lett, 2008), this text covers IC50 and half-life for 25 compounds.

The target of series [1] is T1, C-X-C chemokine receptor type 3 (Homo sapiens, UniProt P49682).
T1 sequence (P49682 whole entry): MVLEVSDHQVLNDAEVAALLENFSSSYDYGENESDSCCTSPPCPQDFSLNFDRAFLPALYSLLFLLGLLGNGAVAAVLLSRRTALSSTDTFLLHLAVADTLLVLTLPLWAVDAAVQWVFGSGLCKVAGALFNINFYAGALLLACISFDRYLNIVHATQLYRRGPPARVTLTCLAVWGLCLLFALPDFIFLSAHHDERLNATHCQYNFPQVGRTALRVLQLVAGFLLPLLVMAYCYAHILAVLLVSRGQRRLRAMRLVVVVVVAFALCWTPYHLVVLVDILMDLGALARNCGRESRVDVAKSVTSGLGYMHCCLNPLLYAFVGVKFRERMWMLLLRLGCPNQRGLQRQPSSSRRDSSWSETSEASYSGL
Put plainly: Antagonist activity at human CXCR3 expressed in CHO cell […] assessed as inhibition of calcium flux by FLIPR. The series is classed as functional, cell-based.

Series [2] has as its target T2, C-X-C chemokine receptor type 3 (Mus musculus, UniProt O88410).
T2 sequence (O88410 whole entry): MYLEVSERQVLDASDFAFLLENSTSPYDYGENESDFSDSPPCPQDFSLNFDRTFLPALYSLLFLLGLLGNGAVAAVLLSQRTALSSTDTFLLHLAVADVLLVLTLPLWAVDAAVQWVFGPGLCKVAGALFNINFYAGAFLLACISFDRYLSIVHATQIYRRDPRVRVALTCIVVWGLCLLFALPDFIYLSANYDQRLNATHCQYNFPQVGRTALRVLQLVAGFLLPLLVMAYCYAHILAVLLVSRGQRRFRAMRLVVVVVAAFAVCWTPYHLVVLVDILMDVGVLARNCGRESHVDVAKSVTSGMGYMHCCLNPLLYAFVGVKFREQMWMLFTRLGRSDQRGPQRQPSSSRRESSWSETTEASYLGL
The experiment in a line: Displacement of [125I]-CXCL10 from mouse CXCR3 expressed in CHO cell membrane. The format is cell membranes. Background: Displacement assays read how much labelled ligand stays bound in the presence of the test substance.

For series [3], the target named is T1, C-X-C chemokine receptor type 3. Put plainly: Displacement of [125I]-CXCL10 from human CXCR3 expressed in CHO cell membrane. The format is cell membranes.
The nature of series [4]: Metabolic stability in mouse liver microsomes assessed as half life. The series is classed as ADME, Microsome. (Liver microsomes are vesicles of endoplasmic reticulum, rich in cytochrome P450 enzymes.)

For orientation: IC50 means the point on the concentration scale where inhibition reaches its midpoint. With `CN(CCCn1c(=N)n(CC(=O)c2ccc(Cl)cc2)c2cccc(Cl)c21)C(=O)Cc1ccccc1`, the IC50 turned out to be 70 nM in series [1], 1400 nM in series [2] and 300 nM in series [3].

Take `CN(CCCn1c(=N)n(CC(=O)c2ccc(Cl)cc2)c2cccc(Cl)c21)C(=O)c1ccccn1`: the IC50 in series [1] turned out to be 20 nM; in series [2] it was 200 nM; in series [3], 30 nM.

What is called half-life is how long it takes for the measured level to halve. On to `CN(CCCn1c(=N)n(CC(=O)c2ccc(Cl)cc2)c2cccc(Cl)c21)C(=O)c1ccc2ccccc2c1`, for which the IC50 amounted to 40 nM in series [1], 500 nM in series [2] and 15 nM in series [3]. For the same compound, in series [4], the half-life amounted to 9.5 min.

As for `CCc1cccc2c1n(CCCN(C)C(=O)Cc1ccccc1)c(=N)n2CC(=O)c1ccc(Cl)cc1`, the values for the IC50 in series [1], in series [2] and in series [3] were 100 nM, 1800 nM and 200 nM, respectively.

With `CN(CCCCn1c(=N)n(CC(=O)c2ccc(Cl)cc2)c2cccc(Cl)c21)C(=O)Cc1ccccc1`, the half-maximal inhibitory concentration (IC50) in series [1] and in series [3] was 400 nM throughout.

As to `N=c1n(CC(=O)c2ccc(Cl)cc2)c2cccc(Cl)c2n1C[C@@H]1CCCN(C(=O)c2cccc3cccnc23)C1`, the IC50 in series [1] is 20 nM; in series [2], 60 nM; in series [3], 15 nM.

As for `CN(CCn1c(=N)n(CC(=O)c2ccc(Cl)cc2)c2cccc(Cl)c21)C(=O)Cc1ccccc1`, the values for the IC50 in series [1], in series [2] and in series [3] were 300 nM, 1500 nM and 400 nM, respectively.

For `CC(=O)N(C)CCn1c(=N)n(CC(=O)c2ccc(Cl)cc2)c2ccccc21`, the IC50 stood at 3400 nM in series [1] and 1300 nM in series [3].

On to `CN(CCn1c(=N)n(CC(=O)c2ccc(Cl)cc2)c2ccccc21)C(=O)C1CCCCC1`, for which the figures for the IC50 in series [1] and in series [3] were 900 nM and 500 nM, respectively.

Regarding `CCOC(=O)CCn1c(=N)n(CC(=O)c2ccc(Cl)cc2)c2ccccc21`, the IC50 in series [1] was found to be 2500 nM; in series [3], 1200 nM.

On to `CN(CCn1c(=N)n(CC(=O)c2ccc(Cl)cc2)c2ccccc21)C(=O)c1ccccc1`, for which the concentration for half-maximal inhibition (IC50) is 2300 nM in series [1] and 300 nM in series [3].

Consider `CCCn1c(=N)n(CC(=O)c2ccc(Cl)cc2)c2ccccc21`, for which, in series [3], the IC50 was 1100 nM.

`Cn1c(=N)n(CC(=O)c2ccc(Cl)cc2)c2ccccc21` had a half-maximal inhibitory concentration (IC50) in series [3] of 700 nM.

`N=c1n(CC(=O)c2ccc(Cl)cc2)c2cccc(Cl)c2n1CC1CCCN(C(=O)c2cccc3cccnc23)C1` (centres undefined): the results for the IC50 in series [1], in series [2] and in series [3] were 20 nM, 80 nM and 15 nM, respectively.

With `COc1ccccc1C(=O)N(C)CCCn1c(=N)n(CC(=O)c2ccc(Cl)cc2)c2cccc(Cl)c21`, the IC50 in series [1] stood at 20 nM; in series [2] it was 150 nM; in series [3], 50 nM. Further, in series [4], the half-life came out at 5.4 min.

For `N=c1n(CC(=O)c2ccc(Cl)cc2)c2cccc(Cl)c2n1CCCN(C(=O)c1cccc2cccnc12)C1CC1`, the IC50 in series [1] is 10 nM; in series [2] it was 1100 nM; in series [3], 20 nM.

On to `CN(CCn1c(=N)n(CC(=O)c2ccc(Cl)cc2)c2ccccc21)C(=O)Cc1ccccc1`, for which the figures for the IC50 in series [1] and in series [3] were 800 nM and 400 nM, respectively.

Regarding `N=c1n(CC(=O)c2ccc(Cl)cc2)c2cccc(Cl)c2n1CC[C@@H]1CCCN1C(=O)c1cccc2cccnc12`, the IC50 in series [1] turned out to be 20 nM; in series [2] it was 40 nM; in series [3], 8 nM. In series [4], the half-life turned out to be 7.5 min.

In the case of `N=c1n(CC(=O)c2ccc(Cl)cc2)c2cccc(Cl)c2n1C[C@H]1CCCN(C(=O)c2cccc3cccnc23)C1`, the half-inhibitory concentration (IC50) is 20 nM in series [1], 70 nM in series [2] and 16 nM in series [3].

For the compound `CN(CCCn1c(=N)n(CC(=O)c2ccc(Cl)cc2)c2cccc(Cl)c21)C(=O)C(C)(C)C`, the IC50 in series [1] is 400 nM; in series [3], 600 nM.

Take `CN(CCCn1c(=N)n(CC(=O)c2ccc(Cl)cc2)c2cccc(Cl)c21)C(=O)c1ccccc1`: the IC50 came to 20 nM in series [1], 800 nM in series [2] and 300 nM in series [3].

With `CN(Cc1ccccc1)C(=O)CCn1c(=N)n(CC(=O)c2ccc(Cl)cc2)c2ccccc21`, the results for the IC50 in series [1] and in series [3] were 200 nM and 400 nM, respectively.

Turning to `CN(CCCn1c(=N)n(CC(=O)c2ccc(Cl)cc2)c2cccc(Cl)c21)C(=O)c1cccc2cccnc12`, the IC50 in series [1] is 20 nM; in series [2], 50 nM; in series [3] it was 20 nM. Also, the half-life in series [4] is 15 min.

Consider `CN(Cc1ccccc1)C(=O)Cn1c(=N)n(CC(=O)c2ccc(Cl)cc2)c2ccccc21`, for which the half-inhibitory concentration (IC50) in series [3] is 2200 nM.

As for `CCn1c(=N)n(CC(=O)c2ccc(Cl)cc2)c2ccccc21`, the IC50 in series [1] was 3500 nM; in series [3], 700 nM.
